For data set [1], the target named is RIPK1 (Homo sapiens (Human), UniProt Q13546). Nature of the data set: In vitro kinase assay (Eurofins Kinase Profiler), IC50. It is filed as biochemical. Particulars: 0.001-10 μM, read-out: RIPK 1 (IC50).
Experimental: In vitro kinase assays were conducted using Kinase Profiler services provided by Eurofins. The experimental method was as follows: the small molecule compound to be tested (0.001-10 μM), the protein kinase to be tested were incubated with a buffer containing substrate, 10 mM magnesium acetate, and [γ-^33P-ATP], the reaction was started by adding Mg\TPmix, after incubation for a period of time at room temperature, a 3% phosphate solution was added to the buffer to stop the reaction. Subsequently, 10 μL of the reaction mixture was quantitatively pipetted onto P30 filter paper, which was washed three times with 75 mM phosphate solution and then once with methanol. The P30 filter paper was air-dried and scintillation fluid was added for scintillation counting.
Data set [2] deals with HT-29 cells. Nature of the data set: Protection against programmed necrosis of HT-29 cells (TNF α/Smac mimetic/Z-VAD-FMK, CCK8). It is filed as cell-based. Conditions: Homo sapiens, TNF α/Smac mimetic/Z-VAD-FMK induced 24 h, CCK8, read-out: HT-29 (EC50).
Data set [3] is described as follows: In vivo pharmacokinetic study in rats. Conditions: rat, plasma, oral, 10 mg/kg. Here is the method:
Blood was collected from rats at different times after administration at the following time points: 0.083 h, 0.25 h, 0.5 h, 1 h, 2 h, 4 h, 8 h, and 24 h after intravenous administration; 0.25 h, 0.5 h, 1 h, 2 h, 4 h, 6 h, 8 h, and 24 h after oral administration. About 0.20 mL of blood was collected via jugular vein or other suitable means for each sample at the corresponding time, with heparin sodium for anticoagulation; the blood sample was placed on ice after collection and centrifuged within 1 h to separate the plasma (centrifugation conditions: centrifugal force 6800 g, 6 min, 2-8° C.). The collected plasma samples were stored in a refrigerator at −80° C. before analysis, and the remaining plasma samples continued to be temporarily stored in the refrigerator at −80° C. for one month after analysis.
Pharmacokinetic parameters such as AUC (0-t), T1/2, Cmax, Tmax, and MRT were calculated using WinNonlin based on plasma concentration data at different time points. The plasma drug concentration-time curve was plotted with BLQ recorded as 0. For the calculation of pharmacokinetic parameters, the concentration before administration was calculated as 0; BLQ before Cmax (including “No peak”) was calculated as 0; no BLQ (including “No peak”) appeared after Cmax participated in the calculation. The experiment was completed by Shanghai Medicilon Inc.

Data set [4] has as its system DSS-induced colitis. Nature of the data set: DSS-induced mouse IBD model. Conditions: 40 mg/kg oral from day 7 after 2.5% DSS.
Experimental: Female C57BL/6 mice weighing 17-20 g were used. […] Fresh DSS solution was changed on Days 2, 4, and 6, respectively. […] The Control group was given normal drinking water daily and corresponding vehicles orally starting on day 7. Body weights and survival rates of mice were recorded daily. Survival curves were fitted using Graphpad Prism 5.0 software. Mice (2/group) were sacrificed on day 12 and observed for changes in colon length.

RIPK1, sequence (Q13546 whole entry): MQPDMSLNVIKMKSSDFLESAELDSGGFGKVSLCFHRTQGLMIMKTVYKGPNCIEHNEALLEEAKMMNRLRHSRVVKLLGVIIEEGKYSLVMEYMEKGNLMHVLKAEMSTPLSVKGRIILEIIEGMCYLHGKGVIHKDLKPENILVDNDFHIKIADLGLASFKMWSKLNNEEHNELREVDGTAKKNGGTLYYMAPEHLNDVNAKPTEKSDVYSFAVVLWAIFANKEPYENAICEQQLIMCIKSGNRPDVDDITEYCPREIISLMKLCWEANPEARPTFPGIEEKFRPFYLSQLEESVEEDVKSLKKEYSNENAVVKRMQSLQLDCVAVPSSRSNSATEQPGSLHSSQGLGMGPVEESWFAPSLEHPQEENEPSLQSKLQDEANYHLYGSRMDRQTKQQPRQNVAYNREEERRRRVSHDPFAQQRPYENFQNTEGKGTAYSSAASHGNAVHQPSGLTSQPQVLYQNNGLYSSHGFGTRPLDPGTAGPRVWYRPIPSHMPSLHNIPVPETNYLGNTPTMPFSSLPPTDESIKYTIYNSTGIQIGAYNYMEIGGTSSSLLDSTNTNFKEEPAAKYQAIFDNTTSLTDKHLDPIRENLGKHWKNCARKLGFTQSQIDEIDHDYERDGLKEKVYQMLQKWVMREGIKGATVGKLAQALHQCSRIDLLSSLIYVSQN

Take `Cn1cc(C(=O)N2CCCC2c2cccc(F)c2)c2cc(-c3ccn4nc(NC(=O)C5CC5)nc4c3)ccc21` (centres unmarked) [Compound 168]: the IC50 in data set [1] was in the range of 0.01 to 0.1 µM. For the same compound, in data set [2], the EC50 was < 0.001 µM. In data set [3], the AUC(0-t) came to 15300 ng·h/mL, the Cmax was 6360 ng/mL, the Tmax stood at 0.33 h and the bioavailability came out at 60.9%. Besides, the half-life in data set [3] was 3.1 h.

On to `Cn1cc(C(=O)N2CCC[C@H]2c2ccc(F)cc2)c2cc(-c3ccn4nc(NC(=O)C5CC5)nc4c3)ccc21` [Compound 174], for which the IC50 in data set [1] was 0.001 to 0.01 µM. For the same compound, the EC50 in data set [2] was < 0.001 µM. In data set [3], the AUC(0-t) worked out at 11500 ng·h/mL, the Cmax was determined as 3840 ng/mL, the Tmax stood at 0.42 h and the bioavailability was determined as 35%. The half-life in data set [3] was 1.99 h.

For `Cn1cc(C(=O)N2CCC[C@H]2c2ccc(F)c(F)c2)c2cc(-c3ccn4nc(NC(=O)C5CC5)nc4c3)ccc21` [Compound 191], the IC50 in data set [1] was < 0.001 µM. In data set [2], the EC50 is < 0.001 µM. Also, in data set [3], the AUC(0-t) is 4560 ng·h/mL, the Cmax was determined as 2130 ng/mL, the Tmax was determined as 0.33 h and the bioavailability was found to be 20.4%. In data set [3], this compound gave a half-life of 4.67 h.

Regarding `Cn1cc(C(=O)N2CCC[C@H]2c2cc(F)cc(F)c2)c2cc(-c3ccn4nc(NC(=O)C5CC5)nc4c3)ccc21` [Compound 192], the IC50 in data set [1] is < 0.001 µM. The EC50 in data set [2] was < 0.001 µM.

As to `Cn1cc(C(=O)N2CCC[C@H]2c2cccc(Cl)c2)c2cc(-c3ccn4nc(NC(=O)C5CC5)nc4c3)ccc21` [Compound 193], in data set [1], the IC50 is 0.01 to 0.1 µM. Moreover, in data set [2], the EC50 is 0.01 to 0.1 µM. Moreover, in data set [3], the AUC(0-t) is 14800 ng·h/mL, the maximum concentration (Cmax) is 2880 ng/mL, the Tmax was 2.25 h and the bioavailability amounted to 31.7%. In addition, the half-life in data set [3] was 2.74 h.

In the case of `Cn1cc(C(=O)N2CCC[C@H]2c2ccc(Cl)cc2)c2cc(-c3ccn4nc(NC(=O)C5CC5)nc4c3)ccc21` [Compound 194], the half-inhibitory concentration (IC50) in data set [1] was < 0.001 µM. Moreover, the 50% effective concentration (EC50) in data set [2] is < 0.001 µM.

As to `CNC(=O)Nc1nc2cc(-c3ccc4c(c3)c(C(=O)N[C@@H](C)c3cccc(F)c3)cn4C)ccn2n1` [Compound 195], the IC50 in data set [1] was < 0.001 µM. Besides, the EC50 in data set [2] was < 0.001 µM.

Regarding `C[C@H](NC(=O)c1cn(C)c2ccc(-c3ccn4nc(N[C@@H](C)CO)nc4c3)cc12)c1cccc(F)c1` [Compound 196], the IC50 in data set [1] is 0.01 to 0.1 µM. For the same compound, in data set [2], the EC50 was < 0.001 µM.

As for `CCn1cc(C(=O)N2CCC[C@H]2c2ccc(F)cc2)c2cc(-c3ccn4nc(NC(=O)C5CC5)nc4c3)cnc21` [Compound 197], the half-inhibitory concentration (IC50) in data set [1] is 0.001 to 0.01 µM. Besides, the EC50 in data set [2] is < 0.001 µM.

For `CCn1cc(C(=O)N2CCC[C@H]2c2ccc(F)cc2)c2cc(-c3ccn4nc(NC(=O)[C@H](C)OC(C)=O)nc4c3)ccc21` [Compound 198], the half-inhibitory concentration (IC50) in data set [1] is 0.01 to 0.1 µM. For the same compound, the EC50 in data set [2] was 0.001 to 0.01 µM.

Consider `CC[C@H](NC(=O)c1cn(CC)c2ccc(-c3ccn4nc(NC(=O)C5CC5)nc4c3)cc12)c1ccc(F)cc1` [Compound 199], for which the IC50 in data set [1] lay within 0.001 to 0.01 µM. Further, the EC50 in data set [2] was < 0.001 µM.

Take `CCn1cc(C(=O)N[C@H](c2ccc(F)cc2)C2CC2)c2cc(-c3ccn4nc(NC(=O)C5CC5)nc4c3)ccc21` [Compound 200]: the IC50 in data set [1] lay in the range of 0.01 to 0.1 µM. Also, the EC50 in data set [2] is < 0.001 µM.

For the compound `CCn1cc(C(=O)N2CCC[C@H]2c2ccc(F)cc2)c2cc(-c3ccn4nc(NC(=O)CN(C)C)nc4c3)ccc21` [Compound 201], the IC50 in data set [1] lay in the range of 0.01 to 0.1 µM. Also, the EC50 in data set [2] is 0.001 to 0.01 µM.

Regarding `Cn1cc(C(=O)N2C(CO)CC[C@H]2c2ccc(F)cc2)c2cc(-c3ccn4nc(NC(=O)C5CC5)nc4c3)ccc21` (some centres unmarked) [Compound 202], the IC50 in data set [1] was ≥ 1 µM. In data set [2], the EC50 is 0.01 to 0.1 µM.

Regarding `Cn1cc(C(=O)N[C@@H](CO)c2ccc(F)cc2)c2cc(-c3ccn4nc(NC(=O)C5CC5)nc4c3)ccc21` [Compound 203], the IC50 in data set [1] was 0.01 to 0.1 µM. Also, in data set [2], the 50% effective concentration (EC50) was < 0.001 µM.

Consider `CCn1cc(C(=O)N2CCC[C@H]2c2ccc(F)cc2)c2cc(-c3ccn4nc(NC(=O)[C@@H](C)O)nc4c3)ccc21` [Compound 204], for which the IC50 in data set [1] is 0.01 to 0.1 µM. For the same compound, the EC50 in data set [2] is < 0.001 µM.

With `CCn1cc(C(=O)N2CCC[C@H]2c2ccc(F)cc2)c2cc(-c3ccn4nc(NC(=O)[C@H](C)O)nc4c3)ccc21` [Compound 205], the IC50 in data set [1] was in the range of 0.01 to 0.1 µM. Besides, the EC50 in data set [2] is < 0.001 µM.

With `[2H]C([2H])([2H])n1cc(C(=O)N[C@H](c2ccc(F)cc2)C2CC2)c2cc(-c3ccn4nc(NC(=O)C5CC5)nc4c3)ccc21` [Compound 206], the half-maximal inhibitory concentration (IC50) in data set [1] fell in the range of 0.001 to 0.01 µM. In addition, the EC50 in data set [2] is < 0.001 µM.

In the case of `[2H]C([2H])([2H])n1cc(C(=O)N[C@H](c2ccc(F)cc2)C2CC2)c2cc(-c3ccn4nc(NC(=O)CN(C)C)nc4c3)ccc21` [Compound 207], the IC50 in data set [1] fell in the range of 0.1 to 1 µM. In data set [2], the EC50 is 0.001 to 0.01 µM.

For `[2H]C([2H])([2H])n1cc(C(=O)N[C@@H](CC)c2ccc(F)cc2)c2cc(-c3ccn4nc(NC(=O)C5CC5)nc4c3)ccc21` [Compound 208], the IC50 in data set [1] lay in the range of 0.01 to 0.1 µM. Also, in data set [2], the EC50 is < 0.001 µM.

For `CCN(CC)CC(=O)Nc1nc2cc(-c3ccc4c(c3)c(C(=O)N3CCC[C@H]3c3ccc(F)cc3)cn4C)ccn2n1` [Compound 209], the IC50 in data set [1] fell in the range of 0.001 to 0.01 µM. Further, the EC50 in data set [2] is < 0.001 µM.

Turning to `CCn1cc(C(=O)N[C@H](c2ccc(F)cc2)C2CC2)c2cc(-c3ccn4nc(NC(=O)CN(C)C)nc4c3)ccc21` [Compound 210], the IC50 in data set [1] was in the range of 0.01 to 0.1 µM. The EC50 in data set [2] was < 0.001 µM.

As for `CC[C@H](NC(=O)c1cn(CC)c2ccc(-c3ccn4nc(NC(=O)CN(C)C)nc4c3)cc12)c1ccc(F)cc1` [Compound 211], the IC50 in data set [1] was in the range of 0.001 to 0.01 µM. Further, in data set [2], the EC50 is < 0.001 µM.

With `CCn1cc(C(=O)N[C@@H](CF)c2ccc(F)cc2)c2cc(-c3ccn4nc(NC(=O)C5CC5)nc4c3)ccc21` [Compound 212], the IC50 in data set [1] lay within 0.001 to 0.01 µM. The EC50 in data set [2] was < 0.001 µM.

Regarding `C[C@H]1CC[C@@H](c2ccc(F)cc2)N1C(=O)c1cn(C)c2ccc(-c3ccn4nc(NC(=O)C5CC5)nc4c3)cc12` [Compound 213], the IC50 in data set [1] lay within 0.001 to 0.01 µM. In addition, the EC50 in data set [2] is < 0.001 µM.

As for `CCn1cc(C(=O)N[C@H](c2ccc(F)cc2)C2CC2)c2cc(-c3ccn4nc(NC5CC5)nc4c3)ccc21` [Compound 214], in data set [1], the IC50 is ≥ 1 µM. The EC50 in data set [2] is ≥ 1 µM.

On to GSK3145095 [reference compound], for which the Death of mice result in data set [4] is given as “occurrence of murine death”. Besides, the “Body weight of mice” value in data set [4] (FIG. 6) is reported as “continuous declination in body weight”.

Usually IC50 stands for the concentration at which inhibition is half-maximal. The term EC50 denotes the concentration that produces a half-maximal response. Usually AUC(0-t) stands for exposure summed from dosing to a finite time, without extrapolation to infinity. Read a low AUC(0-t) as less exposure. As usually defined, the Cmax is the highest concentration seen after dosing. In general, Tmax refers to the time from dosing to the highest level. As a reminder, the bioavailability is the share of a dose that reaches the circulation, judged against a reference dose that is usually intravenous. Low readings indicate little systemic uptake, high ones much systemic uptake. What is called half-life is the time needed for the level to fall by half in the phase considered. Low readings indicate rapid decline, high ones slow decline.
